From ChEMBL document CHEMBL4483862, “Open-source discovery of chemical leads for next-generation chemoprotective antimalarials” (2018) come the findings set out here.

The IC50 is the concentration that gives 50% inhibition. For orientation: IC90 means the concentration at which the effect reaches the 90% level.

The test system of the assay is Plasmodium berghei. As to the kind of experiment: Luciferase/luciferin-expressing antifolate-resistant parasites were used to infect a culture of HepG2 cells that were pre-incubated with compounds. Infected hepatocytes emit light due to the luciferase reaction. Assay results are presented as the percent inhibition of light emission compared to control. […]. As to conditions: sporozoite; for IC90: read-out: LUCIFERASE INFECTION ASSAY - IC90. The class given is functional.

The mark [1] stands for this setting: read-out: LUCIFERASE INFECTION ASSAY - IC50.

Regarding `COc1ccc(C(=O)/C=C/c2cc(Br)c(OCC(=O)N(C)C)c(OC)c2)c(OC)c1`, the concentration for an effect of 90% (IC90) was determined as 4.46 µM. Moreover, the IC50 (HEPG2TOX_HILL_SLOPE 1.45, HEPG2TOX_R_SQUARED 0.95, PBLUC_HILL_SLOPE 1.66, PBLUC_R_SQUARED 0.857, read-out: LUCIFERASE INFECTION ASSAY - IC50) was found to be 1.19 µM.
Turning to `O=S(=O)(c1ccc2oc(Nc3ccc(-c4nc5ccccc5[nH]4)cc3)nc2c1)N1CCOCC1`, the IC90 stood at 3.62 µM. Moreover, under “HEPG2TOX_HILL_SLOPE 1.96, HEPG2TOX_R_SQUARED 0.85, PBLUC_HILL_SLOPE 1.98, 8.82, PBLUC_R_SQUARED 0.398, 0.470, read-out: LUCIFERASE INFECTION ASSAY - IC50”, the IC50 came to 1.54 µM.
On to `CC1C(=O)Nc2ccc(-c3csc(-c4ccc(NC(=O)c5ccco5)cc4)n3)cc21` (configuration not stated), for which the IC90 is more than 10 µM. For the same compound, the IC50 under setting [1] is more than 10 µM.
With `O=C(NC1CCCc2ccccc21)c1oc2ccccc2c1CSc1nccs1` (configuration not stated), the IC90 was more than 10 µM. In addition, the IC50 under setting [1] came out at 6.48 µM.
For the compound `CCOC(=O)c1c(NC(=O)CNCc2ccccn2)sc(CC)c1C`, the 90% effect concentration (IC90) came to 6.49 µM. For the setting “HEPG2TOX_HILL_SLOPE 2.14, HEPG2TOX_R_SQUARED 0.831, PBLUC_HILL_SLOPE 2.51, PBLUC_R_SQUARED 0.552, read-out: LUCIFERASE INFECTION ASSAY - IC50”, the IC50 is 2.7 µM.
Consider `CCC1CCc2sc(C(=O)NN)cc2C1` (configuration not stated), for which the IC90 is more than 10 µM. Besides, the IC50 under setting [1] was more than 10 µM.
On to `Cc1cc(C2N=C(N)Nc3nc4ccccc4n32)c(C)n1-c1ccccc1Cl` (configuration not stated), for which the IC90 came to 7.59 µM. For the same compound, the IC50 (PBLUC_HILL_SLOPE 3.33, 1.30, PBLUC_R_SQUARED 0.920, 0.833, read-out: LUCIFERASE INFECTION ASSAY - IC50) turned out to be 3.92 µM.
On to `C=S(=O)(NS(=O)(=O)c1ccc2c(c1)CCN2C(C)=O)c1ccc(C)cc1` (configuration not stated), for which the IC90 was more than 8.41 µM. Also, under setting [1], the 50% inhibitory concentration (IC50) is more than 8.41 µM.
With `CC(C)c1cccc(C(C)C)c1NC(=O)COc1ccc(CCO)cc1-n1nc2ccccc2n1`, the IC90 came to 6.85 µM. The IC50 (FFLUC_HILL_SLOPE 16.3, FFLUC_R_SQUARED 0.284, PBLUC_HILL_SLOPE 3.54, PBLUC_R_SQUARED 0.756, read-out: LUCIFERASE INFECTION ASSAY - IC50) turned out to be 3.68 µM.
Regarding `COc1ccc(-c2cnc3cnc(/C=C/c4ccccc4)cn23)cc1`, the IC90 amounted to 2.11 µM. Also, the IC50 (PBLUC_HILL_SLOPE 3.95, PBLUC_R_SQUARED 0.779, read-out: LUCIFERASE INFECTION ASSAY - IC50) was determined as 1.21 µM.
As to `O=C(Nc1ccc(F)cc1F)c1cc(Br)ccc1O`, the IC90 came out at 9.77 µM. For the setting “HEPG2TOX_HILL_SLOPE 11.9, HEPG2TOX_R_SQUARED 0.641, PBLUC_HILL_SLOPE 14.3, PBLUC_R_SQUARED 0.252, read-out: LUCIFERASE INFECTION ASSAY - IC50”, the IC50 came out at 8.37 µM.
Regarding `Cc1cccc(C)c1-n1c(=C(C#N)C#N)s/c(=C/c2ccc(Cl)c([N+](=O)[O-])c2)c1=O`, the IC90 came out at 9.8 µM. For the same compound, the IC50 (FFLUC_HILL_SLOPE 2.98, FFLUC_R_SQUARED 0.465, HEPG2TOX_HILL_SLOPE 7.11, HEPG2TOX_R_SQUARED 0.701, PBLUC_HILL_SLOPE 34, PBLUC_R_SQUARED 0.394, read-out: LUCIFERASE INFECTION ASSAY - IC50) stood at 9.19 µM.
Regarding `CCOc1ccc2nc(NC(=O)C3Cc4ccccc4CN3S(=O)(=O)c3ccc(C)cc3)sc2c1` (configuration not stated), the IC90 is more than 10 µM. Under setting [1], the IC50 is more than 10 µM.
For the compound `Cc1ccc(OCc2nc(C(=O)Nc3cccc(S(=O)(=O)NC(C)(C)C)c3)cs2)cc1`, the IC90 is more than 10 µM. Besides, the 50% inhibitory concentration (IC50) under setting [1] was more than 10 µM.
Consider `Cc1cc(C)c(S(=O)(=O)N(Cc2cccc3ccccc23)c2c(C)n(C)n(-c3ccccc3)c2=O)c(C)c1`, for which the 90% effect concentration (IC90) was 9.71 µM. Moreover, the IC50 (HEPG2TOX_HILL_SLOPE 7.62, HEPG2TOX_R_SQUARED 0.586, PBLUC_HILL_SLOPE 20.2, PBLUC_R_SQUARED 0.47, read-out: LUCIFERASE INFECTION ASSAY - IC50) is 8.71 µM.
For `Cc1ccc(N2C(=O)/C(=C\Nc3cc(Cl)ccc3[N+](=O)[O-])c3ccccc3C2=O)c(C)c1`, the concentration for an effect of 90% (IC90) is more than 10 µM. In addition, where the note is “FFLUC_HILL_SLOPE 12.2, FFLUC_R_SQUARED 0.8, read-out: LUCIFERASE INFECTION ASSAY - IC50”, the IC50 is more than 10 µM.
With `CCn1c(=O)[nH]c(=O)c2cc(C(=O)Nc3ccc(Oc4ccccc4)cc3)cnc21`, the IC90 was more than 10 µM. For the same compound, the IC50 (PBLUC_HILL_SLOPE 2.4, PBLUC_R_SQUARED 0.0614, read-out: LUCIFERASE INFECTION ASSAY - IC50) is 6.87 µM.
For `S=C(Nc1ccc(C2=NCCO2)cc1)Nc1ccc(Cl)c(Cl)c1`, the IC90 was more than 9.01 µM. Moreover, the 50% inhibitory concentration (IC50) under setting [1] was more than 9.01 µM.
As to `CCOc1ccc(N(C)S(=O)(=O)c2ccc(C)c(C(=O)Nc3nc4ccccc4[nH]3)c2)cc1`, the IC90 was 3.87 µM. Further, the IC50 (PBLUC_HILL_SLOPE 2.47, PBLUC_R_SQUARED 0.24, read-out: LUCIFERASE INFECTION ASSAY - IC50) amounted to 1.59 µM.
With `C=CCn1c(SCc2cc([N+](=O)[O-])cc3c2OCOC3)nc2cc(C(=O)O)ccc2c1=O`, the IC90 is 6.97 µM. For the same compound, the IC50 under setting [1] is 1.82 µM.
Turning to `CC(C)(C)NC(=O)CNC(=O)c1cc(-c2ccccc2)nc2c1cnn2Cc1ccccc1`, the IC90 is more than 10 µM. In addition, the IC50 (PBLUC_HILL_SLOPE 16.4, PBLUC_R_SQUARED 0.327, read-out: LUCIFERASE INFECTION ASSAY - IC50) came to 9.02 µM.
In the case of `C/C(N)=C(/C#N)C(=O)CSc1nnc(-c2ccc(C(C)(C)C)cc2)n1-c1cccc(Cl)c1Cl`, the IC90 was more than 10 µM. Further, under setting [1], the IC50 is more than 10 µM.
Regarding `COC(=O)c1ccc(NC(=O)Cc2ccc(NC(=O)OC(C)(C)C)cc2)c(C)c1`, the IC90 was more than 10 µM. In addition, under setting [1], the IC50 is more than 10 µM.
Consider `CCC(C)NC(=O)c1c(NC(=O)c2cc(F)ccc2F)nc2ccc(C)cn12` (configuration not stated), for which the IC90 worked out at 3.36 µM. Further, for the setting “HEPG2TOX_HILL_SLOPE 5, HEPG2TOX_R_SQUARED 0.803, PBLUC_HILL_SLOPE 11.7, PBLUC_R_SQUARED 0.232, read-out: LUCIFERASE INFECTION ASSAY - IC50”, the IC50 came out at 2.78 µM.
Consider `COc1ccc(-c2cnc3c(NC(C)=O)cc(-c4ccc5[nH]ccc5c4)cn23)cc1OC`, for which the IC90 was more than 7.74 µM. Moreover, the half-maximal inhibitory concentration (IC50) under setting [1] was more than 7.74 µM.
With `Cc1cccc(C(=O)Nc2nc3ccc(C)cn3c2C(=O)NCC(C)C)c1`, the concentration for an effect of 90% (IC90) was 3.75 µM. In addition, for the setting “HEPG2TOX_HILL_SLOPE 9.43, HEPG2TOX_R_SQUARED 0.373, PBLUC_HILL_SLOPE 11.3, PBLUC_R_SQUARED 0.193, read-out: LUCIFERASE INFECTION ASSAY - IC50”, the IC50 is 3.09 µM.
Regarding `N#CC(C#N)=NNc1ccc(-n2ccc(C(F)(F)F)n2)cc1`, the IC90 is more than 10.8 µM. The IC50 under setting [1] was determined as 4.97 µM.
On the same counts, the results for `C[C@@H](C(=O)NNC(=O)c1cccc(S(=O)(=O)N2CCOCC2)c1)N1C(=O)C2CC=CCC2C1=O` (some centres not stated) are more than 10 µM and more than 10 µM.
`CC(Cc1cccs1)N(Cc1ccc(Cl)cc1)C(=O)c1cc(S(=O)(=O)N2CCOCC2)c(Cl)cc1Cl` (configuration not stated): the IC90 was more than 10 µM. Moreover, the IC50 (HEPG2TOX_HILL_SLOPE 6.93, HEPG2TOX_R_SQUARED 0.0438, read-out: LUCIFERASE INFECTION ASSAY - IC50) is more than 10 µM.
Turning to `N#CC(C(=O)COC(=O)c1cn(-c2ccccc2)nc1-c1ccccc1)=C1Nc2ccccc2N1`, the IC90 is more than 10 µM. The IC50 under setting [1] was more than 10 µM.
Consider `Cn1c(SCC(=O)Nc2cccc(C(=O)O)c2)nnc1-c1cnccn1`, for which the IC90 was more than 8.91 µM. The IC50 under setting [1] was more than 8.91 µM.
`C=CCOc1ccccc1CN(c1ccc2c(c1)OCCO2)S(=O)(=O)c1cccs1`: the IC90 is more than 10 µM. For the same compound, the IC50 (FFLUC_HILL_SLOPE 11.5, FFLUC_R_SQUARED 0.0724, read-out: LUCIFERASE INFECTION ASSAY - IC50) is more than 10 µM.
As for `CCCCCCOc1ccc(-c2cnc(SC)nc2)cc1`, the concentration for an effect of 90% (IC90) turned out to be 0.535 µM. In addition, under setting [1], the IC50 is 0.205 µM.
For `CC(=C(C#N)C#N)c1ccc2c(c1)OCCO2`, in that order: more than 10 µM and more than 10 µM.
For `NNC(=O)COc1ccccc1CSc1ccc(Cl)cc1`, in that order: more than 10.2 µM and more than 10.2 µM.
As to `O=C(Nc1ccc(Cl)c(C(F)(F)F)c1)Nc1ccc2nc(-c3ccsc3)nn2c1`, the concentration for an effect of 90% (IC90) amounted to 9.25 µM. In addition, the half-maximal inhibitory concentration (IC50) (HEPG2TOX_HILL_SLOPE 8.17, HEPG2TOX_R_SQUARED 0.277, PBLUC_HILL_SLOPE 11.1, PBLUC_R_SQUARED 0.655, read-out: LUCIFERASE INFECTION ASSAY - IC50) worked out at 7.59 µM.
`O=C(Nc1ccc(SC(F)(F)F)cc1)N1CCN(c2nc3ccc(Cl)cc3s2)CC1`: the IC90 is more than 6.98 µM. For the same compound, where the note is “HEPG2TOX_HILL_SLOPE 11, HEPG2TOX_R_SQUARED 0.778, PBLUC_HILL_SLOPE 2.23, PBLUC_R_SQUARED 0.377, read-out: LUCIFERASE INFECTION ASSAY - IC50”, the IC50 was determined as 3.77 µM.
Turning to `COc1ccc(-c2cnc3ccc(N[C@H](CO)C(C)C)nn23)cn1`, the IC90 is 4.4 µM. Besides, the IC50 (PBLUC_HILL_SLOPE 4.47, PBLUC_R_SQUARED 0.471, read-out: LUCIFERASE INFECTION ASSAY - IC50) came to 2.69 µM.
For `CCC(C)c1ccc(-c2cc(C(=O)OCC(=O)c3c(N)n(C)c(=O)n(C)c3=O)c3ccccc3n2)cc1` (configuration not stated), the IC90 was more than 10 µM. For the same compound, the concentration for half-maximal inhibition (IC50) (PBLUC_HILL_SLOPE 18.2, PBLUC_R_SQUARED 0.259, read-out: LUCIFERASE INFECTION ASSAY - IC50) was determined as 9.1 µM.
Consider `CCN(CC)S(=O)(=O)c1ccc(O)c(NC(=O)c2ccc(SC(F)(F)F)cc2)c1`, for which the IC90 is more than 10 µM. For the same compound, the half-inhibitory concentration (IC50) under setting [1] is more than 10 µM.
For the compound `Cc1nc(-c2ccc(CNC(=O)COc3ccccc3-c3ccccc3)o2)cs1`, the IC90 is more than 10 µM. Also, the IC50 under setting [1] was more than 10 µM.
